Assay results published in patent US20240109934A1, “ANTIBIOTICS WITH IMPROVED DRUG RESISTANCE PROFILE” (priority 2021, published 2024).
≈ marks a conversion by molar mass, not a printed value. Entries after “also recorded” stand apart in the source; their conditions may differ. Read-outs that look alike come from different tables or passages of the source.

Columns and labels:
[1] = tested on: FA-Resistant strains of S. aureus; assay: MIC against 11 FA-resistant strains generated at 4x-32x the MIC; type: cell-based
Protocol: Antimicrobial Susceptibility Tests. Susceptibility testing was performed in biological triplicate, using the micro-dilution broth method as outlined by the Clinical and Laboratory Standards Institute. Bacteria were cultured with cation-adjusted Muller-Hinton broth (Sigma-Aldrich, Cat #90922) in round-bottom 96-well plates (Corning, Cat #3788). Human serum (Ultrafiltrate, unspecified gender, 30K Dalton membrane filtered) was purchased from BioIVT (Hicksville, NY).
Selection of Resistant Mutants. Resistant mutants were selected via the large inoculum method. Briefly, S. aureus ATCC 29213 (1×10^9 CFU) were plated on 100 mm plates of LB agar containing 4, 2, 1, 0.5, and 0.25 μg/mL.
Sequencing of fusA. FusA was amplified by colony PCR. Colonies were picked and diluted in 100 μL sterile H2O. PCR reactions are setup by combining MiFi Mix (Bioline, London, UK), 20 μM primer mix [fusA-F2, fusA_seq1, Forward EF-G2, and Reverse EF-G](S. aureus ATCC 29213), template DNA, and H2O. Reactions were performed on C1000 Thermal Cycler (Bio-Rad, Hercules, CA) with the following conditions: 5 minutes denaturation at 95° C., followed by 30 cycles of 20 seconds at 95° C., 20 seconds at 50° C., and either 1 minute (fusA1) or 1.5 minutes (fusA2) at 72° C. A 10 μL portion of the PCR reaction mixture was analyzed by agarose gel to confirm the product. PCR reactions were purified using GeneJET PCR Purification Kit (Thermo Scientific). PCR amplicons were submitted to the Core DNA Sequencing Facility at the University of Illinois at Urbana-Champaign for Sanger sequencing with the following primers to sequence the fusA [fusA2, fusA_seq1, Forward EF-G2, Forward EF-G3, Forward EF-G4]

S. aureus (FA-32×-B) = assay: Neutropenic thigh infection burden study, FA-resistant strain; type: in vivo; conditions: neutropenic CD-1 mice, FA-resistant strain (P406L), 50 mg/kg IP at 1, 2, 3 h, burden at 8 h
E. faecium ATCC 19434 = assay: MIC against sensitive E. faecium strain; type: cell-based; conditions: Enterococcus faecium, ATCC19434; sensitive strain E. faecium ATCC 19434
S. aureus ATCC 29213 = assay: Neutropenic thigh infection burden study, sensitive strain; type: in vivo; conditions: neutropenic CD-1 mice, 50 mg/kg IP at 1, 2, 3 h post infection, burden at 24 h
[2] = Pharmacokinetic assessment in mice; type: in vivo, C57BL/6 mice
Protocol: FIG. 3. A). Pharmacokinetic analysis of fusidic acid and FA-CP. […] The data are illustrated as the mean and represent the average of three independent experiments. The pharmacokinetic parameters illustrated above were calculated with a one-compartment model using a non-linear regression program (Phoenix WinNonlin Version 8.1, Certara USA Inc. Princeton NJ 08540 USA). B). S. aureus ATCC 29213 neutropenic thigh infection burden study. CD-1 mice were first rendered neutropenic with cyclophosphamide. Mice were injected on (Day-4 to Day-2) with 150 mg/kg and on (Day-1) with 100 mg/kg of cyclophosphamide, respectively. […] C). S. aureus (FA-32×-B) neutropenic thigh infection study. CD-1 mice were first rendered neutropenic with cyclophosphamide as described above. […] Drugs were formulated with 5% DMSO, 10% Tween 20, 85% PBS immediately before injection. The data shown as means±s.d. and statistical significance was determined by one-way ANOVA with Tukey's multiple comparisons. NS indicates not significant (P>0.05), **P<0.01, ****P<0.0001.
Pharmacokinetic Assessment of sodium fusidate and FA-CP (25). […] The compounds were formulated in 5% DMSO, 10% Tween 20, and 85% PBS. Mice were treated with sodium fusidate or FA-CP (25) (50 mg/kg) via intraperitoneal injection with three mice per time point (15, 30, 45, 60, 120, and 240 min). At specific time points, mice were sacrificed, blood was collected and centrifuged, and the serum was frozen at −80° C. until analysis. The proteins in a 10 μL aliquot of serum were precipitated by the addition of 50 μL acetonitrile with the addition of 10 μL of 1.6 ug/mL internal standard (sodium fusidate was the internal standard when measuring FA-CP (25) and FA-CP (25) was the internal standard when measuring sodium fusidate). The sample was then vortexed and centrifuged to remove the proteins. Supernatants were analyzed with the QTRAP 5500 LC/MS/MS system (Sciex) in the Metabolomics Laboratory of the Roy J. Carver Biotechnology center, University of Illinois at Urbana-Champaign. Software Analyst 1.6.2 was used for data acquisition and analysis. The 1200 Series HPLC System (Agilent Technologies) includes a degasser, an autosampler and a binary pump. The liquid chromatography separation was performed on an Agilent Zorbax SB-Aq column (4.6 mm×50 mm; 5 μm) with mobile phase A (0.1% formic acid in water) and mobile phase B (0.1% formic acid in acetonitrile). The flow rate was 0.3 mL/min. The linear gradient was as follows: 0-1 min: 95% A; 8-13 min: 0% A; 8.1-18.5 min: 95% A. The autosampler was set at 10° C. The injection volume was 5 μL. Mass spectra were acquired under negative electrospray ionization with a voltage of −4,500 V. The source temperature was 450° C. The curtain gas, ion source gas 1 and ion source gas 2 were 32, 60 and 60 psi, respectively. […] The limit of quantitation of (S/N=10) was 1 nM. Pharmacokinetic parameters were calculated with a one-compartment model using a nonlinear regression program (Phoenix WinNonlin Version 8.1; Certara USA).

S. aureus ATCC BAA-1721 = assay: MIC against strain possessing the fusC gene; type: cell-based; conditions: Staphylococcus aureus, ATCCBAA1721
[3] = Staphylococcus aureus, strain FA-4X-A, EF-G T385N
[4] = Staphylococcus aureus, strain FA-4X-B, EF-G T385N
[5] = Staphylococcus aureus, strain FA-8X-A, EF-G T385N
[6] = Staphylococcus aureus, strain FA-8X-B, EF-G R464L
[7] = Staphylococcus aureus, strain FA-16X-A, EF-G H457Y
[8] = Staphylococcus aureus, strain FA-32X-B, EF-G P406L
[9] = Staphylococcus aureus, strain FA-32X-D, EF-G T436I
[10] = mice, 50 mg/kg intraperitoneal, serum, one-compartment model
[11] = female, C57BL/6, mouse, in vivo, ip, 50 mg/kg

SMILES | MIC [1, 3] [µg/mL] | MIC [1, 4] [µg/mL] | MIC [1, 5] [µg/mL] | MIC [1, 6] [µg/mL] | MIC [1, 7] [µg/mL] | MIC [1, 8] [µg/mL] | MIC [1, 9] [µg/mL] | Bacterial burden in thigh (S. aureus (FA-32×-B)) | MIC (E. faecium ATCC 19434) [µg/mL] | Bacterial burden in thigh (S. aureus ATCC 29213) | MIC (S. aureus ATCC BAA-1721) [µg/mL] | other results
CC(=O)O[C@H]1C[C@@]2(C)[C@@H](C[C@@H](O)[C@H]3[C@@]4(C)CC[C@@H](O)[C@@H](C)[C@@H]4CC[C@@]32C)/C1=C(\CCC=C(C)C)C(=O)O [FA, Fusidic acid] | 8 (≈ 15.5 µM) | 8 (≈ 15.5 µM) | 8 (≈ 15.5 µM) | 16 (≈ 31 µM) | 128 (≈ 248 µM) | 32 (≈ 61.9 µM) | 8 (≈ 15.5 µM) | no efficacy | 2 (≈ 3.87 µM) | Significant reductions in bacterial burden | 8 (≈ 15.5 µM) | MIC ([1]; strain FA-32×-B): 32 µg/mL (≈ 61.9 µM); AUC ([2]; female, C57BL/6, mouse, in vivo, ip, mice, 50 mg/kg intraperitoneal, serum, one-compartment model, read-out: AUC (converted)): 9360 ng·h/mL; Cmax ([2]; female, C57BL/6, mouse, in vivo, ip, mice, 50 mg/kg intraperitoneal, serum, one-compartment model, read-out: Cmax): 11100 ng/mL; Tmax ([2]; female, C57BL/6, mouse, in vivo, ip, mice, 50 mg/kg intraperitoneal, serum, one-compartment model, read-out: Tmax (converted)): 5.4 min; CL_F [2, 10]: 89.0 mL/min/kg; K10_HL [2, 10]: 31.2 min
CC(=O)O[C@H]1C[C@@]2(C)[C@@H](C[C@@H](O)[C@H]3[C@@]4(C)CC[C@@H](O)[C@@H](C)[C@@H]4CC[C@@]32C)/C1=C(\CCC=C1CCCC1)C(=O)O [FA-CP, (Z)-2-((3R,4S,5S,8S,9S,10S,11R,13R,14S,16S)-16-acetoxy-3,11-dihydroxy-4,8,10,14-tetramethylhexadecahydro-17H-cyclopenta[a]phenanthren-17-ylidene)-5-cyclopentylidenepentanoic acid] | 2 (≈ 3.68 µM) | 2 (≈ 3.68 µM) | 2 (≈ 3.68 µM) | 8 (≈ 14.7 µM) | 64 (≈ 118 µM) | 4 (≈ 7.37 µM) | 2 (≈ 3.68 µM) | reductions in bacterial burden; also recorded: in vivo efficacy | 2 (≈ 3.68 µM) | Significant reductions in bacterial burden | 8 (≈ 14.7 µM) | MIC ([1]; Staphylococcus aureus, strain FA-32X-A, EF-G F88L): 128 µg/mL (≈ 236 µM); MIC ([1]; Staphylococcus aureus, strain FA-32X-C, EF-G H457L): 128 µg/mL (≈ 236 µM); MIC ([1]; Staphylococcus aureus, strain FA-32X-E, EF-G H457N): 128 µg/mL (≈ 236 µM); MIC ([1]; Staphylococcus aureus, strain FA-32X-F, EF-G D434N): 32 µg/mL (≈ 59 µM); Fold improvement in activity against FA-resistant strains relative to FA ([1]; eleven FA-resistant S. aureus strains): 2-8 fold; AUC [2, 11]: 11700 ng·h/mL; CL_F [2, 11]: 71.3 mL/min/kg; Cmax [2, 11]: 9760 ng/mL; K10_HL [2, 11]: 19.0 min; Tmax [2, 11]: 26.4 min
